According to publication PMC6328288 (Journal of Medicinal Chemistry, 2018):
Values belong to the molecule of their own block, whether it stands above or below them.

What was measured:
human CCR2 [1] = biological target: T1, human CCR2 (Homo sapiens, UniProt P41597); assay: [3H]-CCR2-RA-[R] displacement binding assay on U2OS-CCR2 membranes; details: for displacement at 1 μM (%) / pKi ± SEM: CCR2; for displacement at 1 μM (%): [3H]-CCR2-RA-[R] displacement by 1 μM compound, mean of two experiments; for pKi ± SEM: [3H]-CCR2-RA-[R] binding, U2OS membranes, 25 °C
T1 sequence (P41597 1-360 isoform P41597-2): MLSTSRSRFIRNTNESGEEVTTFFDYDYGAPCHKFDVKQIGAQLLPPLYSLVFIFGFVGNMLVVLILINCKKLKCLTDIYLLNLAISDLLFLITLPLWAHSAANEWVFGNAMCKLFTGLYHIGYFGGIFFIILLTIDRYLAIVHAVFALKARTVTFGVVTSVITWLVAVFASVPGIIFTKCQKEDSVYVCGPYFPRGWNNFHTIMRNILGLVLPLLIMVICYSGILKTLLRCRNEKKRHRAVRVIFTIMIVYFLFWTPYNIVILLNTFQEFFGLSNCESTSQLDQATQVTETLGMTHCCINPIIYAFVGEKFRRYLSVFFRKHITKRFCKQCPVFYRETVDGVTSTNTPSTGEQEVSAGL

human CCR1 [2] = biological target: T2, human CCR1 (Homo sapiens, UniProt P32246); assay: [3H]-CCR2-RA-[R] displacement binding assay on U2OS-CCR1 membranes; details: for displacement of [3H]-CCR2-RA-[R] from CCR1 (in words): concentration-dependent
T2 sequence (P32246 1-355): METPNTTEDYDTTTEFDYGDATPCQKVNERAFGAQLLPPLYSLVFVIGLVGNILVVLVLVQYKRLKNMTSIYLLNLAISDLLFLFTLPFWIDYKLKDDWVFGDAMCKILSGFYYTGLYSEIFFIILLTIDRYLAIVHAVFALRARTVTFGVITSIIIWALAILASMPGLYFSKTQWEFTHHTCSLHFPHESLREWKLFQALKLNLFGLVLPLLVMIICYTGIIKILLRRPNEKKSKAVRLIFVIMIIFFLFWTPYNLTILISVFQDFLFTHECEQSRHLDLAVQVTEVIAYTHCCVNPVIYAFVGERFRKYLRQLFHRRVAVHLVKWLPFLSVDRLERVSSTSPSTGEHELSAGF

human CCR1 [3] = biological target: T2, human CCR1; assay: [35S]GTPγS binding assay on U2OS-CCR1 membranes; type: biochemical; details: for Hill slope, CCR1: CCL3-induced, 8 nM CCL3
human CCR2 [4] = biological target: T1, human CCR2; assay: [35S]GTPγS binding assay on U2OS-CCR2 membranes; type: biochemical; details: for Hill slope, CCR2: CCL2-induced, 20 nM CCL2
human CCR1 [5] = biological target: T2, human CCR1; assay: Inhibition of basal [35S]GTPγS binding in absence of CCL3 in U2OS-CCR1; type: biochemical; details: for fold difference between functional and binding assays: CCR1, [35S]GTPγS potency (absence or presence of CCL3) versus binding affinity; for fold higher potency as inverse agonist than as antagonist: CCR1, absence versus presence of CCL3
[6] = CCR1, [3H]-CCR2-RA-[R] binding, U2OS membranes, 25 °C

Molecule: COc1ccc(C2C(C(C)=O)=C(O)C(=O)N2c2ccc(C)cc2)cc1 (stereo not shown) [Compound 11, 4-Acetyl-3-hydroxy-5-(4-methoxyphenyl)-1-(4-methylphenyl)-1,5-dihydro-2H-pyrrol-2-one]
displacement at 1 μM (%) (human CCR2 [1]): 5% (5, 5)

Molecule: CC(=O)C1=C(O)C(=O)N(c2ccc(C)cc2)C1c1cccc(C)c1 (stereo not shown) [Compound 14, 4-Acetyl-3-hydroxy-5-(3-methylphenyl)-1-(4-methylphenyl)-1,5-dihydro-2H-pyrrol-2-one]
displacement at 1 μM (%) (human CCR2 [1]): 11% (14, 8)

Molecule: CCL3: chemokine ligand activating CCR1, purchased from PeproTech
pEC50, stimulation of [35S]GTPγS binding (human CCR1 [3]; U2OS-CCR1): 8.9 ± 0.06
EC50 (human CCR1 [3]; read-out: potency, stimulation of [35S]GTPγS binding, U2OS-CCR1): 1.3 nM

Molecule: CCC(=O)C1=C(O)C(=O)N(c2ccc(C)cc2)C1C1CCCCC1 (stereo not shown) [Compound 18, 5-Cyclohexyl-3-hydroxy-4-propionyl-1-(4-methylphenyl)-1,5-dihydro-2H-pyrrol-2-one]
pKi ± SEM (human CCR1 [2]; [6]): 7.52 ± 0.01

Molecule: Cc1ccc(N2C(=O)C(O)=C(C(=O)C3CC3)C2C2CCCCC2)cc1 (stereo not shown) [Compound 22, 5-Cyclohexyl-4-(cyclopropanecarbonyl)-3-hydroxy-1-(4-methylphenyl)-1,5-dihydro-2H-pyrrol-2-one]
selectivity for CCR1 over CCR2 (human CCR1 [2]; from binding affinities): 8 fold

Molecule: C[C@@H]1CN(Cc2ccc(F)cc2)CCN1C(=O)COc1ccc(Cl)cc1NC(N)=O [BX471]
[3H]-CCR2-RA-[R] specific binding in presence of compound (absence = 100%) (human CCR1 [2]; 10 μM BX471, 6 nM radioligand, U2OS-CCR1): 116 ± 2%
[3H]-CCR2-RA-[R] binding enhanced up to (human CCR1 [2]; U2OS-CCR1, increasing concentrations): up to 120%
displacement of [3H]-CCR2-RA-[R] from CCR1 (in words) (human CCR1 [2]; U2OS-CCR1): not able to displace

Molecule: CC(=O)C1=C(O)C(=O)N(c2ccc(C)cc2)C1c1ccc(C)cc1 (stereo not shown) [Compound 10, 4-Acetyl-3-hydroxy-5-(4-methylphenyl)-1-(4-methylphenyl)-1,5-dihydro-2H-pyrrol-2-one]
displacement at 1 μM (%) (human CCR2 [1]): 36% (42, 31)

Molecule: CCL2: chemokine ligand activating CCR2, purchased from PeproTech
pEC50, stimulation of [35S]GTPγS binding (human CCR2 [4]; U2OS-CCR2): 8.3 ± 0.09
EC50 (human CCR2 [4]; read-out: potency, stimulation of [35S]GTPγS binding, U2OS-CCR2): 5 nM

Molecule: COc1cccc(C2C(C(C)=O)=C(O)C(=O)N2c2ccc(C)cc2)c1 (stereo not shown) [Compound 15, 4-Acetyl-3-hydroxy-5-(3-methoxyphenyl)-1-(4-methylphenyl)-1,5-dihydro-2H-pyrrol-2-one]
displacement at 1 μM (%) (human CCR2 [1]): 0% (3, −3)

More lines, now with the values ahead:

pKi ± SEM (human CCR1 [2]; [6]): 7.56 ± 0.04
Molecule: O=C(C1=C(O)C(=O)N(c2ccc(Br)cc2F)C1C1CCCCC1)c1ccccc1 (stereo not shown) [Compound 44, 4-Benzoyl-1-(4-bromo-2-fluorophenyl)-5-cyclohexyl-3-hydroxy-1,5-dihydro-2H-pyrrol-2-one]

Ki (human CCR2 [1]): ~20 nM
pKi ± SEM (human CCR2 [1]): 7.73 ± 0.08
Molecule: CC(=O)C1=C(O)C(=O)N(c2ccc(Cl)cc2)C1C1CCCCC1 (stereo not shown) [Compound 30, 4-Acetyl-1-(4-chlorophenyl)-5-cyclohexyl-3-hydroxy-1,5-dihydro-2H-pyrrol-2-one]

pKi ± SEM (human CCR1 [2]; [6]): 7.37 ± 0.03
pKi ± SEM (human CCR2 [1]): 7.75 ± 0.02
Molecule: CC(=O)C1=C(O)C(=O)N(c2ccc(C)c(C)c2)C1C1CCCCC1 (stereo not shown) [Compound 40, 4-Acetyl-5-cyclohexyl-1-(3,4-dimethylphenyl)-3-hydroxy-1,5-dihydro-2H-pyrrol-2-one]

displacement at 1 μM (%) (human CCR2 [1]): 31% (36, 26)
Molecule: CCOC(=O)C1=C(O)C(=O)N(c2ccc(C)cc2)C1C1CCCCC1 (stereo not shown) [Compound 24, Ethyl 2-Cyclohexyl-4-hydroxy-5-oxo-1-(4-methylphenyl)-2,5-dihydro-1H-pyrrole-3-carboxylate]

Ki (human CCR2 [1]): ~20 nM
Molecule: CC(=O)C1=C(O)C(=O)N(c2ccc(Br)cc2)C1C1CCCCC1 (stereo not shown) [Compound 31, 4-Acetyl-1-(4-bromophenyl)-5-cyclohexyl-3-hydroxy-1,5-dihydro-2H-pyrrol-2-one]

Hill slope, CCR1 (human CCR1 [3]): –0.93 ± 0.01
Hill slope, CCR2 (human CCR2 [4]): –1.20 ± 0.08
fold difference between functional and binding assays (human CCR1 [5]): more than 130 fold
Molecule: O=C(C1=C(O)C(=O)N(c2ccc(Br)cc2F)C1c1cccc(Br)c1)C1CC1 (stereo not shown) [Compound 45, 1-(4-Bromo-2-fluorophenyl)-5-(3-bromophenyl)-4-(cyclopropanecarbonyl)-3-hydroxy-1,5-dihydro-2H-pyrrol-2-one]

Hill slope, CCR1 (human CCR1 [3]): –0.72 ± 0.08
Hill slope, CCR2 (human CCR2 [4]): –0.88 ± 0.13
fold higher potency as inverse agonist than as antagonist (human CCR1 [5]): ~10 fold
Molecule: CC(=O)C1=C(O)C(=O)N(c2ccc(Cl)c(C)c2)C1C1CCCCC1 (stereo not shown) [Compound 41, 4-Acetyl-1-(4-chloro-3-methylphenyl)-5-cyclohexyl-3-hydroxy-1,5-dihydro-2H-pyrrol-2-one]

pKi ± SEM (human CCR1 [2]; [6]): 7.19 ± 0.02
Molecule: CC(=O)C1=C(O)C(=O)N(c2ccc(Br)cc2F)C1c1cccc(Br)c1 (stereo not shown) [Compound 46, 4-Acetyl-1-(4-bromo-2-fluorophenyl)-5-(3-bromophenyl)-3-hydroxy-1,5-dihydro-2H-pyrrol-2-one]

Ki (human CCR1 [2]; [6]): 138 nM
pKi ± SEM (human CCR1 [2]; [6]): 6.9 ± 0.06
displacement of [3H]-CCR2-RA-[R] from CCR1 (in words) (human CCR1 [2]; U2OS-CCR1): fully displaced
Molecule: COC(=O)c1c(-c2ccno2)[nH]c(=S)n1CCCc1ccc(F)c(F)c1 [JNJ-27141491, (S)-3-[3,4-difluorophenyl)-propyl]-5-isoxazol-5-yl-2-thioxo-2,3-dihydro-1H-imidazole-4-carboxyl acid methyl ester]

Hill slope, CCR1 (human CCR1 [3]): –0.73 ± 0.02
Hill slope, CCR2 (human CCR2 [4]): –0.80 ± 0.13
fold difference between functional and binding assays (human CCR1 [5]): more than 130 fold
pKi ± SEM (human CCR2 [1]): 7.82 ± 0.04
Molecule: O=C(C1=C(O)C(=O)N(c2ccc(Br)cc2F)C1C1CCCCC1)C1CC1 (stereo not shown) [Compound 43, 1-(4-Bromo-2-fluorophenyl)-5-cyclohexyl-4-(cyclopropanecarbonyl)-3-hydroxy-1,5-dihydro-2H-pyrrol-2-one]

Hill slope, CCR1 (human CCR1 [3]): –0.62 ± 0.05
Hill slope, CCR2 (human CCR2 [4]): –0.94 ± 0.18
fold higher potency as inverse agonist than as antagonist (human CCR1 [5]): 3 fold
Molecule: CC(=O)C1=C(O)C(=O)N(c2ccc(Br)cc2F)C1C1CCCCC1 (stereo not shown) [Compound 39, 4-Acetyl-1-(4-bromo-2-fluorophenyl)-5-cyclohexyl-3-hydroxy-1,5-dihydro-2H-pyrrol-2-one]
